SMILES strings stand for the structures. Where two headings read alike, the source gives them in different places.

The target in experiment [1] is T1, KDM5D (Homo sapiens, UniProt Q9BY66).
T1 construct: host or cells: Sf9 cells
Description: Biochemical KDM inhibition assay (LANCE), KDM5D. Particulars: read-out: Biochemical IC50 KDM 5D. On the procedure: (§1) Representative compounds were characterized for their inhibition of KDM5 using biotinylated histone substrates. Inhibition was measured in vitro (CEREP Poitier, Le Bois l'Evêque, France) following experimental conditions described in Table 2. Briefly, the test compound, reference compound or water (control) was mixed with about 2-20 ng of recombinant, Human enzymes expressed in Sf9 cells in a buffer containing 45 mM Hepes/Tris (pH 7), 5 μM FAS, 100 μM ascorbic acid, 10 μM 2-oxoglutarate, 0.01% Tween 20 and 0.01% BSA. Thereafter, the reaction was initiated by adding the biotin-labeled substrate, and the mixture was incubated for 10-30 min at room temperature. For basal control measurements, the enzyme was omitted from the reaction mixture. Following incubation the reaction was stopped by adding 1 mM EDTA. After 5 min, the anti-methyl histone antibody labeled with europium chelate and the Ulight streptavidine (Perkin Elmer Waltham, Mass.) were added. After 60 min more, the fluorescence transfer was measured at λex=320 nm and λem=620 and λem=665 nm using a microplate reader (Envision, Perkin Elmer) (LANCE). The enzyme activity was determined by dividing the signal measured at λem=665 nm by that measured at 620 nm (ratio).
For orientation: Time-resolved FRET reads energy transfer from a long-lived donor to a nearby acceptor.

Experiment [2] concerns HBV. Description: PHH screening protocol: HBsAg and HBeAg levels by MSD ELISA. Particulars: for EC50: Hepatitis B virus; for time dependency of anti HBV activity: PHH donor 8181 infected with patient virus 21p (GTA). The format is cell-based, Hepatitis B Virus. The protocol:
HBV antiviral activity was assessed in primary human hepatocytes (PHH) in a 96-well format. PHH were (Life Technologies, Chicago, 11) plated on collagen coated tissue culture plates using Plating Media containing William's Medium E supplemented with 1% Penicillin/Streptomycin, 4 μg/mL human recombinant insulin, 2 mM glutamax, 15 mM Hepes, 1 μM dexamethasone and 5% fetal bovine serum (Life Technologies, Cat#A12176-01 Life Technologies, Chicago, Ill.). After a 4-hour incubation at 37° C., cells were switched to Maintenance Media (Cat#CM4000-A15564 Life Technologies, Chicago, Ill.) containing William's Medium E supplemented with 0.5% Penicillin/Streptomycin, 6.25 μg/mL human recombinant insulin, 6.25 μg/mL human transferrin, 6.25 ng/mL selenous acid, 1.25 mg/mL bovine serum albumin, 5.35 μg/mL linoleic acid, 2 mM glutamax, 15 mM Hepes, 0.1 μM dexamethasone, 2% fetal bovine serum, and 2% DMSO (Cat#D2650 Sigma, St. Louis, Mo.). On the next day, cells were infected with approximately 500 genome equivalent of selected HBV clinical isolates (21P (GTA), 32P (GTA), 91P (GTA), AD38 (GTD), 65P (GTD) or 30P (GTE); ProteoGenex, Culver City, Calif.) per cell in Maintenance Media supplemented with 4% PEG 8000 (Cat#V3011 Promega, Madison, Wis.). After 24 hour incubation cells were washed three times with William's Medium E and fed with fresh Maintenance Media. Small molecule inhibitors targeting KDMs were serially diluted in Maintenance Media and added to cells at 3 days post infection (p.i.). Media with compounds was replenished every 2-3 days. Media collected on various days was used for determination of HBsAg and HBeAg levels by MSD ELISA, and HBV RNA by qPCR. All data were converted into percentages of the untreated control and non-linear regression was performed to calculate EC50 or CC50 values.
On the technique in general: In an ELISA, binding on a coated surface is turned into a signal by an enzyme label.

Experiment [3] has as its target T2, KDM5B (Homo sapiens, UniProt Q9UGL1).
T2 construct: host or cells: Sf9 cells
In words: Biochemical KDM inhibition assay (LANCE), KDM5B. Particulars: read-out: Biochemical IC50 KDM 5B. The protocol:
as §1

The mark [4] stands for this setting: read-out: HBeAg EC50, D 8, PHH donor 8181, virus 21p.
Setting [5] is: read-out: HBeAg EC50, D 13, PHH donor 8181, virus 21p.
The mark [6] stands for this setting: read-out: HBeAg EC50, D 17, PHH donor 8181, virus 21p.
The mark [7] stands for this setting: read-out: HBeAg EC50, D 22, PHH donor 8181, virus 21p.
[8] abbreviates: read-out: HBeAg EC50, D 27, PHH donor 8181, virus 21p.
Where [9] appears, read: read-out: HBeAg EC50, HBV-infected PHH.
Setting [10] is: read-out: HBsAg EC50, D 8, PHH donor 8181, virus 21p.
[11] abbreviates: read-out: HBsAg EC50, D 13, PHH donor 8181, virus 21p.
[12] abbreviates: read-out: HBsAg EC50, D 17, PHH donor 8181, virus 21p.
Setting [13] is: read-out: HBsAg EC50, D 22, PHH donor 8181, virus 21p.
Where [14] appears, read: read-out: HBsAg EC50, D 27, PHH donor 8181, virus 21p.
Where [15] appears, read: read-out: HBsAg EC50, HBV-infected PHH.

T2 sequence (Q9UGL1 whole entry): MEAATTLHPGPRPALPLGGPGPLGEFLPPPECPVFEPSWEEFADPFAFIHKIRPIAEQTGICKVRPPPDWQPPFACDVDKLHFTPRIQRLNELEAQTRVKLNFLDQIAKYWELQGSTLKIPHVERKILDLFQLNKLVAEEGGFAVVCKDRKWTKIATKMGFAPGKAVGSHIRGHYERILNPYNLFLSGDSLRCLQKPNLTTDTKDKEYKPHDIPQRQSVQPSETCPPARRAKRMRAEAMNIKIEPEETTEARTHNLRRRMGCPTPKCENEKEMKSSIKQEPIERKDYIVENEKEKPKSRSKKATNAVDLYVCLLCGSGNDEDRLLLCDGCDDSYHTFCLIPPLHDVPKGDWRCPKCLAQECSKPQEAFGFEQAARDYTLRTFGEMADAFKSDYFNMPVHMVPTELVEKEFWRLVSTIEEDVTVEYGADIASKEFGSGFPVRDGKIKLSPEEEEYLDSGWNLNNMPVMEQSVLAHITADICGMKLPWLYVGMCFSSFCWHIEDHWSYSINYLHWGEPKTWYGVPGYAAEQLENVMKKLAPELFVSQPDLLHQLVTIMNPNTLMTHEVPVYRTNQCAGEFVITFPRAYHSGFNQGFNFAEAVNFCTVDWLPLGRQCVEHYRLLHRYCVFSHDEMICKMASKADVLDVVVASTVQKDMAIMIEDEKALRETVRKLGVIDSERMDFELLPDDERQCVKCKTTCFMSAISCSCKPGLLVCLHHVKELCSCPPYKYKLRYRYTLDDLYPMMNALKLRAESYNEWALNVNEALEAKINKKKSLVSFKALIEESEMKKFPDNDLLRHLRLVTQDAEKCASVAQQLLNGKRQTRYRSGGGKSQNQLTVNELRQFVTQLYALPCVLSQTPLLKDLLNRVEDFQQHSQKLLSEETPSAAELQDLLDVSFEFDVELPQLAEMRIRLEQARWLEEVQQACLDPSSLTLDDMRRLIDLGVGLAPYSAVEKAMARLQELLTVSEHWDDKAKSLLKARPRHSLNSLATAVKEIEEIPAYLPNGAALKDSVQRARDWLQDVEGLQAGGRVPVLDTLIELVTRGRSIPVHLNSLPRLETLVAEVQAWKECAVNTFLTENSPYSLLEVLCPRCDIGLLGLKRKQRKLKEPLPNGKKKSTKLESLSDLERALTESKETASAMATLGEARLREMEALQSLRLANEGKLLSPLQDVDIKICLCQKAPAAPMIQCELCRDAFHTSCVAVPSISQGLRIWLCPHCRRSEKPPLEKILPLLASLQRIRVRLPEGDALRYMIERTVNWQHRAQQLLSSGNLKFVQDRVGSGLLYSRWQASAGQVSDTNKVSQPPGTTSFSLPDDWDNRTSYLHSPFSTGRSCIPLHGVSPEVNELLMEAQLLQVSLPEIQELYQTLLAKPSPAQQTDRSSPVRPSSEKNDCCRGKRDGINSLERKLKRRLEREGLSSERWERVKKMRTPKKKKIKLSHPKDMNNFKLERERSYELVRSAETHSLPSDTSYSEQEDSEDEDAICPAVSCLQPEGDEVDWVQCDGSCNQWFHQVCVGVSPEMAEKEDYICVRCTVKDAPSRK
T1 sequence (Q9BY66 whole entry): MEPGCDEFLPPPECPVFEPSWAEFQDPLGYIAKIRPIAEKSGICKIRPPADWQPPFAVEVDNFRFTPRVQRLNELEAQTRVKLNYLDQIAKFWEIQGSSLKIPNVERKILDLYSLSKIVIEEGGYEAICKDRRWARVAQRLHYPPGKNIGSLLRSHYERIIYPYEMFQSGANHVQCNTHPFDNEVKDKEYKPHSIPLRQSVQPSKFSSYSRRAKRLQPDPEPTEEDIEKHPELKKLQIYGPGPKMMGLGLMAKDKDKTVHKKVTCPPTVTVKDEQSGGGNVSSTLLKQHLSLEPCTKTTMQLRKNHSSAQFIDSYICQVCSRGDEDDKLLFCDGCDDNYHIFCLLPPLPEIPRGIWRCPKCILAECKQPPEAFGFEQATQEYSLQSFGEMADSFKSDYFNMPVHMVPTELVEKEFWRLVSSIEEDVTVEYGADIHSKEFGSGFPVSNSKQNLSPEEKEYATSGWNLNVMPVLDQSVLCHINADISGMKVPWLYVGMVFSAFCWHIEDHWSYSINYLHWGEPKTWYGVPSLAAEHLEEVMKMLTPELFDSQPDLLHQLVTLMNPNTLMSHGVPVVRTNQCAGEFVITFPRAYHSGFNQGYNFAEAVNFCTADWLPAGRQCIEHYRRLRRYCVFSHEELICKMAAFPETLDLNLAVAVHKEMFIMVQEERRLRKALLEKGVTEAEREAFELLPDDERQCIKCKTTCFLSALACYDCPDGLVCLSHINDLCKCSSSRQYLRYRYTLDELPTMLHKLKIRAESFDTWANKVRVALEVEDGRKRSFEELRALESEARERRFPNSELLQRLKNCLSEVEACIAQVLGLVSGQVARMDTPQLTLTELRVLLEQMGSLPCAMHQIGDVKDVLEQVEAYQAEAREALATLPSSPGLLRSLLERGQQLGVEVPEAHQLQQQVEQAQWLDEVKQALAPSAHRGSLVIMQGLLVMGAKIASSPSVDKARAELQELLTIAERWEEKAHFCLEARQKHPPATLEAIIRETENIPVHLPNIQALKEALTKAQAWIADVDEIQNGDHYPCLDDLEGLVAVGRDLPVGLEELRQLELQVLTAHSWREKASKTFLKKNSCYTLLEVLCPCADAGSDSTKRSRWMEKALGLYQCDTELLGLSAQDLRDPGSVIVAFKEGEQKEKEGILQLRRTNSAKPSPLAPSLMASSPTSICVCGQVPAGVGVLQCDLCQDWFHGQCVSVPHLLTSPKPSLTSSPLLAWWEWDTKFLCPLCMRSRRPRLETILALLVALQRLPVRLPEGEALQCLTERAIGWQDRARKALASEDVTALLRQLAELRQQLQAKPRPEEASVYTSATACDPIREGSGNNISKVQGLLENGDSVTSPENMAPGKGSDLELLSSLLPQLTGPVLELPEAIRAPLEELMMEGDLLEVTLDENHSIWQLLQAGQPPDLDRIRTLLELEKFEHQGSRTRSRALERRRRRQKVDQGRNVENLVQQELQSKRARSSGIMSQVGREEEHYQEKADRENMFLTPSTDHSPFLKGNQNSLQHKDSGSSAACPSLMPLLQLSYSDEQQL

As usually defined, the IC50 is the point on the concentration scale where inhibition reaches its midpoint. Broadly, the EC50 is the midpoint of the concentration-response curve. For the compound `CCN(CCN(C)C)C(=O)CNCc1cc(C(=O)O)ccn1` [Example 9], the results for the IC50 in experiment [1] and in experiment [3] were 66 nM and 14 nM, respectively. The EC50 in experiment [2] (setting [4]) was > 100000 nM; in experiment [2] (setting [5]), 849 nM; in experiment [2] (setting [6]), 267 nM; in experiment [2] (setting [7]) it was 153 nM; in experiment [2] (setting [8]), 300 nM; in experiment [2] (setting [9]) it was 1630 nM. The EC50 in experiment [2] (setting [10]) was > 100000 nM; in experiment [2] (setting [11]), 2330 nM; in experiment [2] (setting [12]), 369 nM; in experiment [2] (setting [13]), 200 nM; in experiment [2] (setting [14]), 400 nM; in experiment [2] (setting [15]) it was 2020 nM. Further, the “time dependency of anti HBV activity” value in experiment [2] is reported as “time dependent”.
For the compound `CCN(CC)CCCCNCc1cc(C(=O)O)ccn1` [Example 18], the IC50 in experiment [1] came out at 33 nM; in experiment [3], 3.1 nM. Further, the concentration for a half-maximal effect (EC50) in experiment [2] (setting [9]) worked out at 22600 nM; in experiment [2] (setting [15]), 19500 nM.
Take `Nc1c(C(=O)O)ccnc1C(=O)O` [Example 7, reference compound]: the results for the IC50 in experiment [1] and in experiment [3] were 700 nM and 510 nM, respectively. Moreover, the EC50 in experiment [2] (setting [4]) is > 50000 nM; in experiment [2] (setting [5]), 4030 nM; in experiment [2] (setting [6]), 1100 nM; in experiment [2] (setting [7]), 90 nM; in experiment [2] (setting [8]), 60 nM; in experiment [2] (read-out: HBeAg EC50, D 31, PHH donor 8181, virus 21p), 60 nM. Moreover, the EC50 was 642 nM in experiment [2] (setting [9]); > 50000 nM in experiment [2] (setting [10]); 990 nM in experiment [2] (setting [11]); 580 nM in experiment [2] (setting [12]); 70 nM in experiment [2] (setting [13]); 60 nM in experiment [2] (setting [14]). The concentration giving a half-maximal response (EC50) was determined as 60 nM in experiment [2] (read-out: HBsAg EC50, D 31, PHH donor 8181, virus 21p) and 481 nM in experiment [2] (setting [15]). In experiment [2], the “time dependency of anti HBV activity” value is given as “time dependent”.
With `Cc1cc(Cl)ccc1COc1ccnn1-c1cc(C(=O)O)ccn1` [Example 11], the IC50 turned out to be 98 nM in experiment [1] and 36 nM in experiment [3]. In addition, the half-maximal effective concentration (EC50) in experiment [2] (setting [9]) stood at 5770 nM; in experiment [2] (setting [15]), 4050 nM.
The matching figures for `O=C(O)c1ccncc1Nc1nn(CCN2CCC(F)(F)CC2)c2ccc(F)cc12` [Example 13]: 65 nM, 21 nM, 5970 nM and 3980 nM.
The matching figures for `N#CNC(=O)c1ccncc1Nc1nn(CCN2CCC(F)(F)CC2)c2ccc(F)cc12` [Example 14]: 85 nM, 14 nM, 1090 nM and 1300 nM.
